Experiments:
[1] = metabolic properties and overall effectiveness as a supplement, compared with other creatine forms; assay type: in vivo
[2] = system: burn victims; conditions: compared with molar equivalents of ornithine base and alpha-ketoglutaric acid taken separately; cited from earlier work
[3] = system: ATP production; assay: production of ATP (high energy phosphate molecules); conditions: compared with additive effects of creatine and malic acid taken separately
[4] = absorption / bioavailability after oral supplementation; assay type: in vivo
[5] = problems associated with creatine supplementation (cramping, bloating); assay type: in vivo; conditions: compared with other creatine supplementation
[6] = compared with any other form of creatine or malic acid supplement currently available
[7] = compared to creatine monohydrate

For CN(CC(=O)O)C(=N)N.O=C(O)CC(O)C(=O)O [monocreatine malate, reference compound], which “effect compared with dicreatine malate” value ([1]; comparison with dicreatine malate, inventors' experience) is on record?
The value was “inferior to the dicreatine malate”.

For NCCC[C@H](N)C(=O)O [ornithine alpha-ketoglutarate], which anti-catabolic effect [2] is on record?
The anti-catabolic effect was “strong anti-catabolic effect on burn victims far greater in effect than what is produced by merely combining the effects of the molar equivalents”.

Which results are given for dicreatine malate?
production of ATP [3]: increases the production of ATP to a much greater extent than what would be expected by the mere additive effects; absorption [4, 6]: more readily absorbed; bioavailabilities of the creatine and malic acid moieties ([4]; compared with individual bioavailabilities of creatine monohydrate and malic acid): increase the bioavailablities of both the creatine and malic acid moieties; decreasing adipose stores [1, 7]: enhanced efficacy for decreasing adipose stores; increasing cell volumization [1, 7]: enhanced efficacy for increasing cell volumization; increasing muscle mass [1, 7]: enhanced efficacy for increasing muscle mass; increasing overall strength and endurance [1, 7]: enhanced efficacy for increasing for increasing overall strength and endurance; effectiveness [1, 6]: much more effective; problems associated with creatine supplementation (cramping, bloating, bioavailability issues) [5]: decreasing some of the problems associated with other creatine supplementation

— patent US7129273B2, “Dicreatine Malate” (Creative Compounds, LLC, priority 2003, dated 2006)
